Data published in the CheMixHub viscosity set.
± gives the uncertainty stated by the source.

Assay: xn = mol fraction of the nth substance listed

CC1=CCC(=C(C)C)CC1 + Brc1ccccc1
viscosity [mPa·s], 101 kPa
Conditions | x1 = 0.0687 | x1 = 0.1424 | x1 = 0.2216 | x1 = 0.307 | x1 = 0.3992 | x1 = 0.4992 | x1 = 0.6079 | x1 = 0.7266 | x1 = 0.8567
303.15 K | 0.993 ± 0.021 | 1 ± 0.022 | 1.011 ± 0.024 | 1.023 ± 0.027 | 1.032 ± 0.03 | 1.036 ± 0.034 | 1.033 ± 0.038 | 1.023 ± 0.043 | 1.01 ± 0.048
308.15 K | 0.942 ± 0.02 | 0.948 ± 0.021 | 0.957 ± 0.023 | 0.967 ± 0.025 | 0.975 ± 0.029 | 0.979 ± 0.032 | 0.973 ± 0.036 | 0.962 ± 0.04 | 0.947 ± 0.045
313.15 K | 0.893 ± 0.019 | 0.897 ± 0.02 | 0.905 ± 0.022 | 0.913 ± 0.024 | 0.919 ± 0.027 | 0.922 ± 0.03 | 0.915 ± 0.034 | 0.903 ± 0.038 | 0.887 ± 0.042

CCc1ccccc1 + C1CCCCC1
303.15 K, 101 kPa
Conditions | viscosity [mPa·s]
x2 = 0.1 | 0.5951 ± 0.0042
x2 = 0.199 | 0.5943 ± 0.0042
x2 = 0.2994 | 0.5972 ± 0.0042
x2 = 0.3986 | 0.6025 ± 0.0042
x2 = 0.5008 | 0.6166 ± 0.0043
x2 = 0.5984 | 0.6366 ± 0.0044
x2 = 0.7004 | 0.6596 ± 0.0045
x2 = 0.798 | 0.7008 ± 0.0046
x2 = 0.9002 | 0.7571 ± 0.0049

COC(C)(C)C + C1CCCCC1
303.15 K, 101 kPa
Conditions | viscosity [mPa·s]
x1 = 0.132 | 0.693 ± 0.005
x1 = 0.2612 | 0.609 ± 0.004
x1 = 0.3989 | 0.536 ± 0.004
x1 = 0.5216 | 0.485 ± 0.004
x1 = 0.5654 | 0.466 ± 0.004
x1 = 0.7149 | 0.42 ± 0.003
x1 = 0.8393 | 0.384 ± 0.003

Clc1ccccc1 + C1CCCCC1
Conditions | viscosity [mPa·s]
293.65 K, 101.33 kPa, x2 = 0.497 | 0.834 ± 0.0097
293.85 K, 101.33 kPa, x2 = 0.7 | 0.8665 ± 0.01
294.25 K, 101.33 kPa, x2 = 0.3 | 0.8152 ± 0.0094
294.55 K, 101.33 kPa, x2 = 0.4 | 0.819 ± 0.0095
294.75 K, 101.33 kPa, x2 = 0.2 | 0.8056 ± 0.0093
294.85 K, 101.33 kPa, x2 = 0.8 | 0.889 ± 0.01
295.15 K, 101.33 kPa, x2 = 0.6 | 0.8189 ± 0.0096
297.15 K, 101.33 kPa, x2 = 0.1 | 0.7894 ± 0.0092
303.05 K, 101.33 kPa, x2 = 0.3 | 0.738 ± 0.0085
303.25 K, 101.33 kPa, x2 = 0.7 | 0.7564 ± 0.0088
303.25 K, 101.33 kPa, x2 = 0.8 | 0.7829 ± 0.0091
303.45 K, 101.33 kPa, x2 = 0.1 | 0.731 ± 0.0084
303.75 K, 101.33 kPa, x2 = 0.2 | 0.7191 ± 0.0083
303.85 K, 101.33 kPa, x2 = 0.4 | 0.7276 ± 0.0084
303.85 K, 101.33 kPa, x2 = 0.6 | 0.7319 ± 0.0088
303.95 K, 101.33 kPa, x2 = 0.497 | 0.7249 ± 0.0084
308.15 K, 101 kPa, x2 = 0.0465 | 0.6656 ± 0.011
308.15 K, 101 kPa, x2 = 0.1818 | 0.6489 ± 0.011
308.15 K, 101 kPa, x2 = 0.2516 | 0.6418 ± 0.011
308.15 K, 101 kPa, x2 = 0.3629 | 0.6379 ± 0.011
308.15 K, 101 kPa, x2 = 0.4845 | 0.6421 ± 0.011
308.15 K, 101 kPa, x2 = 0.5788 | 0.6489 ± 0.011
308.15 K, 101 kPa, x2 = 0.6926 | 0.6668 ± 0.011
308.15 K, 101 kPa, x2 = 0.807 | 0.6991 ± 0.012
308.15 K, 101 kPa, x2 = 0.9588 | 0.7386 ± 0.013
312.65 K, 101.33 kPa, x2 = 0.1 | 0.6777 ± 0.0078
312.75 K, 101.33 kPa, x2 = 0.497 | 0.6502 ± 0.0075
312.75 K, 101.33 kPa, x2 = 0.7 | 0.666 ± 0.0077
312.95 K, 101.33 kPa, x2 = 0.4 | 0.6505 ± 0.0075
312.95 K, 101.33 kPa, x2 = 0.6 | 0.5637 ± 0.0066
313.15 K, 101 kPa, x2 = 0.0465 | 0.6298 ± 0.011
313.15 K, 101 kPa, x2 = 0.1818 | 0.6122 ± 0.011
313.15 K, 101 kPa, x2 = 0.2516 | 0.6045 ± 0.011
313.15 K, 101 kPa, x2 = 0.3629 | 0.5973 ± 0.01
313.15 K, 101 kPa, x2 = 0.4845 | 0.601 ± 0.01
313.15 K, 101 kPa, x2 = 0.5788 | 0.6074 ± 0.011
313.15 K, 101 kPa, x2 = 0.6926 | 0.6254 ± 0.011
313.15 K, 101 kPa, x2 = 0.807 | 0.6532 ± 0.011
313.15 K, 101 kPa, x2 = 0.9588 | 0.689 ± 0.012
313.25 K, 101.33 kPa, x2 = 0.2 | 0.6448 ± 0.0074
313.45 K, 101.33 kPa, x2 = 0.3 | 0.6518 ± 0.0075
313.75 K, 101.33 kPa, x2 = 0.8 | 0.6758 ± 0.0079
322.55 K, 101.33 kPa, x2 = 0.497 | 0.5847 ± 0.0068
322.55 K, 101.33 kPa, x2 = 0.6 | 0.585 ± 0.0066
322.75 K, 101.33 kPa, x2 = 0.3 | 0.591 ± 0.0068
322.75 K, 101.33 kPa, x2 = 0.4 | 0.5803 ± 0.0067
322.85 K, 101.33 kPa, x2 = 0.7 | 0.5926 ± 0.0069
322.85 K, 101.33 kPa, x2 = 0.8 | 0.6059 ± 0.007

C=CC(=O)OCC + C1CCOC1
viscosity [mPa·s], 101 kPa
Conditions | 293.15 K | 298.15 K | 303.15 K | 308.15 K | 313.15 K | 318.15 K
x2 = 0.0825 | 0.5547 ± 0.023 | 0.5211 ± 0.021 | 0.4896 ± 0.02 | 0.4554 ± 0.019 | 0.4158 ± 0.017 | 0.3758 ± 0.015
x2 = 0.167 | 0.5422 ± 0.022 | 0.5102 ± 0.021 | 0.4802 ± 0.02 | 0.4474 ± 0.018 | 0.4096 ± 0.017 | 0.3711 ± 0.015
x2 = 0.2302 | 0.5338 ± 0.022 | 0.503 ± 0.021 | 0.4739 ± 0.019 | 0.4421 ± 0.018 | 0.4055 ± 0.017 | 0.3682 ± 0.015
x2 = 0.316 | 0.5237 ± 0.021 | 0.4945 ± 0.02 | 0.4666 ± 0.019 | 0.436 ± 0.018 | 0.401 ± 0.016 | 0.3651 ± 0.015
x2 = 0.3892 | 0.5163 ± 0.021 | 0.4883 ± 0.02 | 0.4613 ± 0.019 | 0.4317 ± 0.018 | 0.3978 ± 0.016 | 0.3631 ± 0.015
x2 = 0.4603 | 0.5102 ± 0.021 | 0.4832 ± 0.02 | 0.457 ± 0.019 | 0.4283 ± 0.017 | 0.3954 ± 0.016 | 0.3617 ± 0.015
x2 = 0.5286 | 0.5051 ± 0.021 | 0.4791 ± 0.019 | 0.4535 ± 0.018 | 0.4256 ± 0.017 | 0.3938 ± 0.016 | 0.361 ± 0.015
x2 = 0.5947 | 0.5011 ± 0.02 | 0.4759 ± 0.019 | 0.4509 ± 0.018 | 0.4236 ± 0.017 | 0.3926 ± 0.016 | 0.3607 ± 0.015
x2 = 0.6605 | 0.4979 ± 0.02 | 0.4734 ± 0.019 | 0.4489 ± 0.018 | 0.4222 ± 0.017 | 0.392 ± 0.016 | 0.3609 ± 0.015
x2 = 0.7283 | 0.4954 ± 0.02 | 0.4716 ± 0.019 | 0.4475 ± 0.018 | 0.4213 ± 0.017 | 0.3919 ± 0.016 | 0.3615 ± 0.015
x2 = 0.7874 | 0.4938 ± 0.02 | 0.4707 ± 0.019 | 0.4468 ± 0.018 | 0.421 ± 0.017 | 0.3922 ± 0.016 | 0.3624 ± 0.015
x2 = 0.8689 | 0.4927 ± 0.02 | 0.4702 ± 0.019 | 0.4466 ± 0.018 | 0.4212 ± 0.017 | 0.3931 ± 0.016 | 0.3642 ± 0.015
x2 = 0.936 | 0.4926 ± 0.02 | 0.4705 ± 0.019 | 0.4471 ± 0.018 | 0.4219 ± 0.017 | 0.3944 ± 0.016 | 0.3661 ± 0.015

Clc1ccccc1 + C=C(C)C(=O)OC
303.15 K, 101 kPa
Conditions | viscosity [mPa·s]
x2 = 0.099 | 0.6943 ± 0.0067
x2 = 0.1971 | 0.6738 ± 0.0066
x2 = 0.3987 | 0.6345 ± 0.0064
x2 = 0.4982 | 0.6147 ± 0.0063
x2 = 0.6984 | 0.5743 ± 0.0061
x2 = 0.7989 | 0.5538 ± 0.006
x2 = 0.8987 | 0.5349 ± 0.0059

Clc1cccc2ccccc12 + C=Cc1ccccc1
viscosity [mPa·s], 101.33 kPa
Conditions | x2 = 0.1076 | x2 = 0.2005 | x2 = 0.301 | x2 = 0.4032 | x2 = 0.5003 | x2 = 0.6015 | x2 = 0.684 | x2 = 0.7992 | x2 = 0.9033
298.15 K | 2.356 ± 0.054 | 2.07 ± 0.048 | 1.778 ± 0.041 | 1.549 ± 0.036 | 1.379 ± 0.033 | 1.216 ± 0.029 | 1.108 ± 0.027 | 0.9675 ± 0.024 | 0.8331 ± 0.021
303.15 K | 2.103 ± 0.048 | 1.864 ± 0.043 | 1.617 ± 0.038 | 1.412 ± 0.034 | 1.259 ± 0.03 | 1.115 ± 0.027 | 1.013 ± 0.025 | 0.91 ± 0.023 | 0.8013 ± 0.021
308.15 K | 1.884 ± 0.044 | 1.677 ± 0.039 | 1.47 ± 0.035 | 1.283 ± 0.031 | 1.152 ± 0.028 | 1.036 ± 0.025 | 0.9455 ± 0.024 | 0.8446 ± 0.021 | 0.7413 ± 0.019

CCc1ccccc1 + CC1COC(=O)O1
viscosity [mPa·s], 101 kPa
Conditions | 298.15 K | 308.15 K
x2 = 0.0294 | 0.6462 ± 0.026 | 0.5585 ± 0.023
x2 = 0.042 | 0.6512 ± 0.026 | 0.5634 ± 0.023
x2 = 0.0729 | 0.6609 ± 0.026 | 0.5767 ± 0.024
x2 = 0.0821 | 0.6655 ± 0.026 | 0.5811 ± 0.024
x2 = 0.1013 | 0.6735 ± 0.027 | 0.5908 ± 0.024
x2 = 0.2023 | 0.7164 ± 0.028 | 0.6552 ± 0.026
x2 = 0.3008 | 0.8062 ± 0.031 | 0.7411 ± 0.029
x2 = 0.4012 | 0.9344 ± 0.035 | 0.8533 ± 0.033
x2 = 0.5001 | 1.098 ± 0.041 | 0.9894 ± 0.037
x2 = 0.6001 | 1.302 ± 0.047 | 1.154 ± 0.042
x2 = 0.7001 | 1.544 ± 0.055 | 1.345 ± 0.049
x2 = 0.8009 | 1.827 ± 0.064 | 1.567 ± 0.056
x2 = 0.8992 | 2.14 ± 0.074 | 1.811 ± 0.064
